Data as given in US20220354949A1, “NOVEL COMPOUNDS” (XENIOPRO GmbH, priority 2018, published 2022).

Key:
Format in all cases: cell-based
[1] = test system: TANOUE cells (human B cell leukemia cells); test: Proliferation assay (alamarBlue) with TANOUE cells
Excerpt: (§1) The antiproliferative activities of compounds falling under formula (Ia), (Ib) and (Ic), respectively, were investigated on cells or cell lines originating from a disorder of the haematopoietic system, including the myeloid cell compartment and the lymphoid cell compartment (T-cells and B-cells), the neuroendocrine system, the cervix, the breast, the ovaries, the lung, the gastrointestinal tract, and the mucosal epithelium, as well as from the skin epithelium and from the muscle. To this end, HL-60 cells, NB-4 cells, HH cells, RPMI-8402 cells, TANOUE cells, TT cells, HeLa cells, MDA-MB-231 cells, FU-OV-1 cells, LOU-NH91 cells, 23132/87 cells, CAL-27 cells, BHY cells, SCC-25 cells, A-431 cells, human primary epidermal keratinocytes (HPEK), and C2C12 cells were seeded into 96-well plates suitable for fluorescence assays (CORNING #3598) at following initial cell numbers: 1000 cells per well for HL-60; 1000 cells per well for NB-4; 5000 cells per well for HH; 5000 cells per well for RPMI-8402; 1500 cells per well for TANOUE; 9000 cells per well for TT; 2000 cells per well for HeLa; 3000 cells per well for MDA-MB-231; 3000 cells per well for FU-OV-1; 4000 cells per well for LOU-NH91; 2000 cells per well for 23132/87; 2000 cells per well for CAL-27; 1500 cells per well for BHY; 1500 cells per well for SCC-25; 700 cells per well for A-431; 1000 cells per well for HPEK; 500 cells per well for C2C12. The cells were treated with compounds at indicated final concentrations (diluted from the 1000× stock-solutions in DMSO to a final DMSO concentration of 0.1% v/v in H2O (Water For Injection, WFI, Fisherscientific #10378939)) or with the empty carrier DMSO at 0.1% v/v as control for 5 days. At day 5 after starting the treatments the cells were subjected to the alamarBlue® Proliferation Assay (Bio-Rad Serotec GmbH, BUF012B) according to the protocol of the manufacturer. The readout was taken with a multi-well plate-reader in the fluorescence mode with applying a filter for excitation at 560 nm (band width 10 nm) and for emission at 590 nm (band width 10 nm). Control treatments for growth inhibition with commercial compounds such as Methotrexate (MTREX) and Resveratrol (RES) were included on every plate. Some of the test compounds of the present invention were obtained and applied as their salts. According cases are indicated in the column “Specification” in Table 55 to Table 92 and by their sum formula in Table 93.
(§2) The assays were performed in duplicate or more replicates of independent single experiments each containing a six-fold replicate for every condition. For every individual plate, the measured fluorescence intensity values of the conditions with compound treatment were normalized against the corresponding equally weighted arithmetic mean of the fluorescence intensity values of the six DMSO treated control wells in order to obtain the relative values to a baseline level of 1.0.
(§3) Two independent outlier analyses were performed according to the methods by Peirce and Chauvenet (Ross, Journal of Engineering Technology 2003, 1-12). Outliers confirmed by at least one of the methods were excluded from the calculations but not more than one value out of six per compound within a single experiment. The weighted arithmetic mean (here abbreviated as AVEw) for each compound was calculated from the normalized values over all independent replicates of the single experiments comprising the six replicates each. The corresponding standard deviation for the weighted arithmetic mean was calculated according to the method described by Bronstein et al. (Bronstein, Semendjajew, Musiol, Müihlig, Taschenbuch der Mathematik, 5th edition 2001 (German), publisher: Verlag Harri Deutsch, Frankfurt am Main and Thun) and was combined with the Gauß' error propagation associated with the performed calculation for the normalization. The resulting standard deviation is herein referred to as “combined standard deviation”. […]

[2] = test system: CAL-27 cells (human tongue squamous cell carcinoma cells); test: Proliferation assay (alamarBlue) with CAL-27 cells; conditions: for Activity Range (weighted arithmetic mean AVEw of normalized fluorescence intensity, relative to DMSO basis level 1.0): 20 μM; for Activity Range (weighted arithmetic mean of normalized fluorescence intensity, relative to DMSO basis level 1.0): control at 40 μM
Excerpt: as §1, §2, §3

[3] = test system: NB-4 cells (human acute promyelocytic leukemia cells); test: Proliferation assay (alamarBlue) with NB-4 cells
Excerpt: as §1, §2, §3

[4] = test system: HL-60 cells (human acute myeloid leukemia cells); test: Proliferation assay (alamarBlue) with HL-60 cells
Excerpt: as §1, §2, §3

[5] = test system: TT cells (human medullary thyroid carcinoma cells); test: Proliferation assay (alamarBlue) with TT cells
Excerpt: as §1, §2, §3

[6] = test system: 23132/87 cells (human gastric adenocarcinoma cells); test: Proliferation assay (alamarBlue) with 23132/87 cells; conditions: for Activity Range (weighted arithmetic mean AVEw of normalized fluorescence intensity, relative to DMSO basis level 1.0): 20 μM; for Activity Range (weighted arithmetic mean of normalized fluorescence intensity, relative to DMSO basis level 1.0): control at 40 μM
Excerpt: as §1, §2, §3

## Oc1ccc(C=Cc2cc(O)cc(O)c2)cc1 [RES, Resveratrol]
[1]; compound at 20 μM, Table 64 (compounds of PCT/EP2018/054686)
  Activity Range: weighted arithmetic mean (AVEw) of normalized fluorescence intensity relative to DMSO basis level 1.0: 0.1 ± 0.0
[1]; control at 40 μM, Table 64
  Activity Range: weighted arithmetic mean (AVEw) of normalized fluorescence intensity relative to DMSO basis level 1.0: 0.0 ± 0.0
[2]; Table 77 (novel compounds)
  Activity Range (weighted arithmetic mean AVEw of normalized fluorescence intensity, relative to DMSO basis level 1.0): 0.8 ± 0.1
[2]; Table 78 (compounds disclosed in PCT/EP2018/054686)
  Activity Range (weighted arithmetic mean AVEw of normalized fluorescence intensity, relative to DMSO basis level 1.0): 0.8 ± 0.1
[2]; Table 77
  Activity Range (weighted arithmetic mean of normalized fluorescence intensity, relative to DMSO basis level 1.0): 0.4 ± 0.3
[2]; Table 78
  Activity Range (weighted arithmetic mean of normalized fluorescence intensity, relative to DMSO basis level 1.0): 0.4 ± 0.3
[3]; 20 μM, relative to DMSO basis level 1.0, Table 57 (novel compounds)
  Activity Range: weighted arithmetic mean (AVEw) of normalized fluorescence intensity, proliferation assay with NB-4 cells: 0.1 ± 0.0
[3]; 20 μM, relative to DMSO basis level 1.0, Table 58 (compounds disclosed in PCT/EP2018/054686)
  Activity Range: weighted arithmetic mean (AVEw) of normalized fluorescence intensity, proliferation assay with NB-4 cells: 0.1 ± 0.0
[3]; control at 40 μM, relative to DMSO basis level 1.0, Table 57
  Activity Range: weighted arithmetic mean (AVEw) of normalized fluorescence intensity, proliferation assay with NB-4 cells: 0.0 ± 0.0
[3]; control at 40 μM, relative to DMSO basis level 1.0, Table 58
  Activity Range: weighted arithmetic mean (AVEw) of normalized fluorescence intensity, proliferation assay with NB-4 cells: 0.0 ± 0.0
[4]; 20 μM, relative to DMSO basis level 1.0, Table 55 (novel compounds)
  Activity Range: weighted arithmetic mean (AVEw) of normalized fluorescence intensity, proliferation assay with HL-60 cells: 0.4 ± 0.1
[4]; 20 μM, relative to DMSO basis level 1.0, Table 56 (compounds disclosed in PCT/EP2018/054686)
  Activity Range: weighted arithmetic mean (AVEw) of normalized fluorescence intensity, proliferation assay with HL-60 cells: 0.4 ± 0.1
[4]; control at 40 μM, relative to DMSO basis level 1.0, Table 55
  Activity Range: weighted arithmetic mean (AVEw) of normalized fluorescence intensity, proliferation assay with HL-60 cells: 0.2 ± 0.1
[4]; control at 40 μM, relative to DMSO basis level 1.0, Table 56
  Activity Range: weighted arithmetic mean (AVEw) of normalized fluorescence intensity, proliferation assay with HL-60 cells: 0.2 ± 0.1
[5]; compound at 20 μM, Table 65 (novel compounds)
  Activity Range: weighted arithmetic mean (AVEw) of normalized fluorescence intensity relative to DMSO basis level 1.0: 0.9 ± 0.0
[5]; compound at 20 μM, Table 66 (compounds of PCT/EP2018/054686)
  Activity Range: weighted arithmetic mean (AVEw) of normalized fluorescence intensity relative to DMSO basis level 1.0: 0.9 ± 0.0
[5]; control at 40 μM, Table 65
  Activity Range: weighted arithmetic mean (AVEw) of normalized fluorescence intensity relative to DMSO basis level 1.0: 0.7 ± 0.0
[5]; control at 40 μM, Table 66
  Activity Range: weighted arithmetic mean (AVEw) of normalized fluorescence intensity relative to DMSO basis level 1.0: 0.7 ± 0.0
[6]; Table 75 (novel compounds)
  Activity Range (weighted arithmetic mean AVEw of normalized fluorescence intensity, relative to DMSO basis level 1.0): 0.5 ± 0.1
[6]; Table 76 (compounds disclosed in PCT/EP2018/054686)
  Activity Range (weighted arithmetic mean AVEw of normalized fluorescence intensity, relative to DMSO basis level 1.0): 0.5 ± 0.1
[6]; Table 75
  Activity Range (weighted arithmetic mean of normalized fluorescence intensity, relative to DMSO basis level 1.0): 0.2 ± 0.0
[6]; Table 76
  Activity Range (weighted arithmetic mean of normalized fluorescence intensity, relative to DMSO basis level 1.0): 0.2 ± 0.0
